{"source": "paper PMC8347709", "about": "(International Journal of Molecular Sciences, 2021)"}
{"biological_target": "T1, hCB2R (Homo sapiens, UniProt P34972)", "T1 sequence (P34972 whole entry)": "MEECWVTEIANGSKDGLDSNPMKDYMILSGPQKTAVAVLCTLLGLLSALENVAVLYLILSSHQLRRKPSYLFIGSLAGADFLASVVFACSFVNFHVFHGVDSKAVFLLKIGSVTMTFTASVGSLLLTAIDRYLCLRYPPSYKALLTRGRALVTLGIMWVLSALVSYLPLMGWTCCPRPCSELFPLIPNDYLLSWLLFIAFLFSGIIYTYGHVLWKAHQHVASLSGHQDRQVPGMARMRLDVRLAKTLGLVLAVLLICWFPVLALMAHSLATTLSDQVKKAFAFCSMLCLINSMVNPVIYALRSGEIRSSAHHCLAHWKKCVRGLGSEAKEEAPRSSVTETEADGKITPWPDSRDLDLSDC", "assay": "not given", "conditions": "HEK-293 membranes, [3H]CP-55,940; cited from earlier work", "units": {"Ki": "nM"}}
{"molecule": "CC1CCC(NC(=O)c2cc3cccnc3n(CCCCF)c2=O)CC1", "note": "(stereo not shown) [compound 5, 1-(4-Fluorbutyl)-N-(4-methyl)-2-oxo-1,2-dihydro-1,8-naphthyridine-3-carboxamide]", "Ki": 1.4}
{"biological_target": "T1, hCB2R", "assay": "not given", "conditions": "diastereomeric mixture; published value; cited from earlier work", "units": {"Ki": "nM"}}
{"molecule": "CC1CCC(NC(=O)c2cc3cccnc3n(CCCCF)c2=O)CC1", "note": "(stereo not shown) [compound 5, 1-(4-Fluorbutyl)-N-(4-methyl)-2-oxo-1,2-dihydro-1,8-naphthyridine-3-carboxamide]", "Ki": 1.3}
{"tested_on": "not given", "assay": "not given", "parameters": "method as in PMID 30342565, PMID 2173751", "conditions": "cited from earlier work"}
{"molecule": "(−)-Δ9-trans-tetrahydrocannabinol [THC]", "LogD7.4": "> 7"}
{"biological_target": "CB2", "assay": "not given", "parameters": "method as in PMID 29921889, PMID 33379862", "conditions": "Figure 1; cited from earlier work", "units": {"Ki": "nM"}}
{"molecule": "Cc1s/c(=N\\C(=O)C2C(C)(C)C2(C)C)n(CCO[11CH3])c1C", "note": "[[^11C]A-836339]", "Ki": 0.7}
{"molecule": "CCCCCn1cc(C(=O)NC23CC4CC(CC(C4)C2)C3)c(=O)c2cccc(O[11CH3])c21", "note": "[[^11C]KD2]", "Ki": 1.7}
{"molecule": "[11CH3]Oc1ccc2ncc(NCCCc3nc(-c4ccc(F)cc4Cl)no3)cc2c1", "note": "[[^11C]MA2]", "Ki": 87}
{"molecule": "CCCCOc1c(O[11CH3])ccc2cc(C(=O)NC3CCCCC3)c(=O)[nH]c12", "note": "[[^11C]NE40]", "Ki": 9.6}
{"molecule": "CCOCCn1cc(C(=O)NC23CC4CC(CC(C4)C2)C3)c(=O)c2cccc(O[11CH3])c21", "note": "[[^11C]RS-016]", "Ki": 0.7}
{"molecule": "CCOC(=O)C(CC)(CC)NC(=O)c1ccc(N2CC(O[11CH3])C2)c(OCC2CC2)n1", "note": "[[^11C]RSR-056]", "Ki": 2.5}
{"molecule": "CCCCOc1c(OCC[18F])ccc2cc(C(=O)NC3CCCCC3)c(=O)[nH]c12", "note": "[[^18F]1]", "Ki": 36}
{"molecule": "CCC(CC)(NC(=O)c1ccc(N2CC(OC)C2)c(OCC2CC2)n1)C(=O)OCCC[18F]", "note": "[[^18F]2]", "Ki": 6}
{"molecule": "COc1cccc2c(=O)c(C(=O)NC34CC5CC(CC(C5)C3)C4)cn(CCOCCCC[18F])c12", "note": "[[^18F]AH-040]", "Ki": 0.9}
{"molecule": "COc1cccc2c(=O)c(C(=O)NC34CC5CC(CC(C5)C3)C4)cn(CCCOCCC[18F])c12", "note": "[[^18F]AH-043]", "Ki": 6.3}
{"molecule": "Cc1s/c(=N\\C(=O)C2C(C)(C)C2(C)C)n(CCOCC[18F])c1C", "note": "[[^18F]FC024]", "Ki": 0.1}
{"molecule": "Cc1s/c(=N\\C(=O)C2C(C)(C)C2(C)C)n(CCCC[18F])c1C", "note": "[[^18F]JHU94620]", "Ki": 0.4}
{"molecule": "Fc1ccc(-c2noc(CCCNc3cnc4ccc(OCC[18F])cc4c3)n2)c(Cl)c1", "note": "[[^18F]MA3]", "Ki": 0.8}
{"molecule": "CCOCCn1cc(C(=O)NC23CC4CC(CC(C4)C2)C3)c(=O)c2cccc(OCC[18F])c21", "note": "[[^18F]RS-122]", "Ki": 72}
{"molecule": "COc1cccc2c(=O)c(C(=O)NC34CC5CC(CC(C5)C3)C4)cn(CCOCCC[18F])c12", "note": "[[^18F]RS-126]", "Ki": 1.2}
{"molecule": "[2H]C([2H])([18F])C([2H])([2H])C([2H])([2H])OC(=O)C(CC)(CC)NC(=O)c1ccc(N2CC(OC)C2)c(OCC2CC2)n1", "note": "[[^18F]RoSMA-18-d6]", "Ki": 6}
{"biological_target": "T1, hCB2R", "assay": "competitive radioligand displacement with [3H]WIN55212-2 on hCB2-CHO membrane preparations", "assay_type": "binding", "parameters": "host or cells: CHO cells, stably transfected", "conditions": "hCB2-CHO membranes, read-out: Ki(hCB2R)", "units": {"Ki": "nM"}, "text": "In brief, membrane preparations obtained from CHO cell lines stably transfected with either human CB1 (hCB1-CHO; obtained from Euroscreen, Gosselies, Belgium) or human CB2 (hCB2-CHO; obtained from Paul L. Prather, Department of Pharmacology and Toxicology, College of Medicine, University of Arkansas for Medical Sciences, Fayetteville, AR, USA) were used along with [^3H]SR141716A (1554 GBq/mmol; PerkinElmer Life and Analytical Sciences, Rodgau, Germany) and [^3H]WIN55212-2 (6438 GBq/mmol; PerkinElmer Life and Analytical Sciences, Rodgau, Germany), resp., as target-specific radioligands. The incubations were performed in 50 mM TRIS-HCl, pH 7.4, supplemented with 0.1% bovine serum albumin (BSA), 5 mM MgCl2, and 1 mM EDTA for 90 min at room temperature. Various concentrations of test compounds were administered, and the non-specific binding was determined in the presence of 10 μM 56. The values of bound activity were used to determine affinity (Ki) values using non-linear regression analysis (GraphPad Prism 2.01, v9, San Diego, CA, USA) and based on the KD values of [^3H]56 determined by saturation experiments [54].\nHuman CB2 receptors were expressed in CHO cells, and affinities were determined by competitive radioligand displacement experiments using [^3H]WIN552122. […]"}
{"molecule": "C[C@H]1CC[C@@H](NC(=O)c2cc3cccnc3n(CCCCF)c2=O)CC1", "note": "[cis-5]", "Ki": 6}
{"molecule": "C[C@H]1CC[C@H](NC(=O)c2cc3cccnc3n(CCCCF)c2=O)CC1", "note": "[trans-5]", "Ki": 52}
{"biological_target": "T2, CB2R in rat spleen tissue (Rattus norvegicus, UniProt Q9QZN9)", "T2 construct": "from tissue; host or cells: rat spleen cryosections (female SPRD rat)", "T2 sequence (Q9QZN9 1-360)": "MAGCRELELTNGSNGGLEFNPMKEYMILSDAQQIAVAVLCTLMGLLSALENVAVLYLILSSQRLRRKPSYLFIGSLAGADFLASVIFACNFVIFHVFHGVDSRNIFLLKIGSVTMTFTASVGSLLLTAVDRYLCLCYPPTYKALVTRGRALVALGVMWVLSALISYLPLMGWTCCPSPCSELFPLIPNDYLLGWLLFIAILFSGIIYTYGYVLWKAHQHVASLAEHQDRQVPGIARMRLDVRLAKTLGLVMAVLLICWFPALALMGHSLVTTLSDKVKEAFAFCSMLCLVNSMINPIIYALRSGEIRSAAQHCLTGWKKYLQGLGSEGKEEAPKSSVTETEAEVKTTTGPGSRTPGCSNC", "assay": "not given", "parameters": "method as in PMID 27713686", "conditions": "previously reported; cited from earlier work"}
{"molecule": "Fc1ccc(-c2noc(CCCNc3cnc4ccc(OCC[18F])cc4c3)n2)c(Cl)c1", "note": "[[^18F]MA3]", "visualisation of CB2 receptors in rodent spleen tissue": "inability to visualise CB2 receptors in rodent spleen tissue"}
